PubChem BioAssay AID270 (DTP/NCI, 2004)
Where “and” joins values, the source holds several entries; their conditions need not be identical. Equal entries are not always repeated. Results filed as inconclusive are left out.

System: BDF1 mice, s.c. Lewis lung carcinoma, T/C %
Experiment: NCI In Vivo Anticancer Drug Screen. Data for tumor model Lewis Lung Carcinoma (subcutaneous) in B6D2F1 (BDF1) mice
How it was run: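 Readout: survival or tumor size, expressed as treated (T) over vehicle control (C). Transplantable tumor implanted in mice; compound given to the treated group.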

[1] = endpoint: mean tumor weight, dose: 125.0 mg/kg/injection, schedule: Q01DX011 (ip), vehicle: carboxymethylcellulose (CMC), higher = larger tumour
[2] = endpoint: median survival time, dose: 12.5 mg/kg/injection, schedule: Q01DX009 (ip), vehicle: Klucel (hydroxypropylcellulose) (HPC), higher = longer survival
[3] = endpoint: median survival time, dose: 25.0 mg/kg/injection, schedule: Q01DX009 (ip), vehicle: Klucel (hydroxypropylcellulose) (HPC), higher = longer survival

OC1c2cc(Cl)ccc2-c2c(Cl)cc(Cl)cc21 (stereo not given)
T/C (endpoint: mean tumor weight, dose: 63.0 mg/kg/injection, schedule: Q01DX011 (ip), vehicle: carboxymethylcellulose (CMC), higher = larger tumour): 64 % of control | T/C [1]: 58 % of control | T/C (endpoint: mean tumor weight, dose: 190.0 mg/kg/injection, schedule: Q01DX011 (ip), vehicle: carboxymethylcellulose (CMC), higher = larger tumour): 61 % of control

CC(=O)OC(C)(C)/C=C/C(=O)[C@](C)(O)[C@H]1[C@H](O)C[C@@]2(C)[C@@H]3CC=C4[C@@H](C[C@H](O)C(=O)C4(C)C)[C@]3(C)C(=O)C[C@]12C
T/C (endpoint: mean tumor weight, dose: 0.16 mg/kg/injection, schedule: Q01DX011 (ip), vehicle: saline, higher = larger tumour): 69 % of control | T/C (endpoint: mean tumor weight, dose: 0.25 mg/kg/injection, schedule: Q01DX011 (ip), vehicle: saline, higher = larger tumour): 53 % of control | T/C (endpoint: mean tumor weight, dose: 0.38 mg/kg/injection, schedule: Q01DX011 (ip), vehicle: saline, higher = larger tumour): 83 % of control | T/C (endpoint: mean tumor weight, dose: 0.4 mg/kg/injection, schedule: Q01DX011 (ip), vehicle: carboxymethylcellulose (CMC), higher = larger tumour): 67 % of control | T/C (endpoint: mean tumor weight, dose: 0.4 mg/kg/injection, schedule: Q01DX011 (ip), vehicle: saline, higher = larger tumour): 48 % of control | T/C (endpoint: mean tumor weight, dose: 0.8 mg/kg/injection, schedule: Q01DX011 (ip), vehicle: saline, higher = larger tumour): 42 % of control

O=C(Nc1ccc(C(=O)O)cc1)Oc1ccc(N(CCCl)CCCl)cc1
T/C (endpoint: median survival time, dose: 6.25 mg/kg/injection, schedule: Q01DX009 (ip), vehicle: Klucel (hydroxypropylcellulose) (HPC), higher = longer survival): 100 % of control | T/C [2]: 100 % of control | T/C [3]: 88 % of control

O=C(O)CSC1(SCC(=O)O)CCCCC1
T/C (endpoint: mean tumor weight, dose: 133.0 mg/kg/injection, schedule: Q01DX011 (ip), vehicle: other, higher = larger tumour): 75 % of control | T/C (endpoint: mean tumor weight, dose: 200.0 mg/kg/injection, schedule: Q01DX011 (ip), vehicle: other, higher = larger tumour): 77 % of control | T/C (endpoint: mean tumor weight, dose: 300.0 mg/kg/injection, schedule: Q01DX011 (ip), vehicle: other, higher = larger tumour): 104 % of control | T/C (endpoint: mean tumor weight, dose: 450.0 mg/kg/injection, schedule: Q01DX011 (ip), vehicle: other, higher = larger tumour): 86 % of control

CN(/N=N/N(C)c1ccccc1)c1ccccc1
T/C (endpoint: mean tumor weight, dose: 15.6 mg/kg/injection, schedule: Q01DX011 (ip), vehicle: carboxymethylcellulose (CMC), higher = larger tumour): 77 % of control | T/C (endpoint: mean tumor weight, dose: 31.3 mg/kg/injection, schedule: Q01DX011 (ip), vehicle: carboxymethylcellulose (CMC), higher = larger tumour): 66 % of control | T/C (endpoint: mean tumor weight, dose: 62.5 mg/kg/injection, schedule: Q01DX011 (ip), vehicle: carboxymethylcellulose (CMC), higher = larger tumour): 52 % of control | T/C [1]: 48 % of control

COc1cc2cc(c1Cl)N(C)C(=O)C[C@H](OC(=O)[C@H](C)N(C)C(C)=O)[C@]1(C)O[C@H]1[C@H](C)[C@@H]1C[C@@](O)(NC(=O)O1)[C@H](OC)C=C/C=C(\C)C2
T/C (endpoint: median survival time, dose: 0.04 mg/kg/injection, schedule: Q04DX003 (ip), vehicle: saline, higher = longer survival): 112 % of control | T/C (endpoint: median survival time, dose: 0.08 mg/kg/injection, schedule: Q04DX003 (ip), vehicle: saline, higher = longer survival): 102 % of control | T/C (endpoint: median survival time, dose: 0.15 mg/kg/injection, schedule: Q04DX003 (ip), vehicle: saline, higher = longer survival): 110 % of control | T/C (endpoint: median survival time, dose: 0.6 mg/kg/injection, schedule: Q04DX003 (ip), vehicle: saline, higher = longer survival): 96 % of control

Cc1ccc(Oc2ccc3cc[n+](C)cc3c2)cc1
T/C (endpoint: median survival time, dose: 6.25 mg/kg/injection, schedule: Q01DX009 (ip), vehicle: saline, higher = longer survival): 96 % of control | T/C (endpoint: median survival time, dose: 12.5 mg/kg/injection, schedule: Q01DX009 (ip), vehicle: saline, higher = longer survival): 101 % of control

CC(=O)C(C)=O
T/C (endpoint: mean tumor weight, dose: 50.0 mg/kg/injection, schedule: Q01DX011 (ip), vehicle: saline, higher = larger tumour): 116 % of control | T/C (endpoint: mean tumor weight, dose: 100.0 mg/kg/injection, schedule: Q01DX011 (ip), vehicle: saline, higher = larger tumour): 76 % of control | T/C (endpoint: mean tumor weight, dose: 200.0 mg/kg/injection, schedule: Q01DX011 (ip), vehicle: saline, higher = larger tumour): 71 % of control | T/C (endpoint: mean tumor weight, dose: 400.0 mg/kg/injection, schedule: Q01DX011 (ip), vehicle: saline, higher = larger tumour): 87 % of control

CN(C)[C@@H]1C(=O)C(C(N)=O)=C(O)[C@]2(O)C(=O)C3C(=O)c4c(O)ccc(Cl)c4[C@](C)(O)[C@H]3C[C@@H]12 (stereo not given in full)
T/C [2]: 117 % of control | T/C [3]: 120 % of control | T/C (endpoint: median survival time, dose: 50.0 mg/kg/injection, schedule: Q01DX009 (ip), vehicle: Klucel (hydroxypropylcellulose) (HPC), higher = longer survival): 102 % of control and 123 % of control

NC(=O)c1ccc(NC(=O)CCC(=O)Nc2ccc(C(N)=O)cn2)nc1
T/C (endpoint: mean tumor weight, dose: 1.25 mg/kg/injection, schedule: Q01DX011 (ip), vehicle: carboxymethylcellulose (CMC), higher = larger tumour): 54 % of control | T/C (endpoint: mean tumor weight, dose: 2.5 mg/kg/injection, schedule: Q01DX011 (ip), vehicle: carboxymethylcellulose (CMC), higher = larger tumour): 24 % of control
